Experimental findings from patent US7410955B2, “Therapeutic use of agonist ligands specific to G2A receptor” (Biosynergen, Inc., priority 2002, dated 2008) are described below.

One test relates to neutrophils (human PMNs). The test can be described thus: IL-8 release induced by LPS in neutrophils (ELISA). In kind it is cell-based. Particulars: 15 μM and 30 μM, 1 hour before 1 μg/ml LPS, supernatant after 3 hours. The source says: Neutrophils were isolated from healthy adults using discontinuous percoll gradient according to the method of Szucs, S. et al. (J. Immunol. Methods, 167: 245-251, 1994). First, plasmas were separated from heparinized whole blood, and red blood cells were depleted by dextran sedimentation. Thereafter, leukocytes were layered over a percoll gradient with densities of 1.077 and 1.094 (Pharmacia, Sweden). Separated neutrophil layers were recovered from the percoll gradient interface, and then washed with HBSS (Hank's balanced salt solution, Sigma Chemical Co., USA). The remaining pellet was resuspended in RPMI 1640 medium supplemented with 10% FBS (fetal bovine serum) and 2 mM gentamicin. As a result of the examination of the cytospin stained with Wright-Giemsa (Sigma Chemical Co., USA), it was observed that the resuspension solution contained 95% or more neutrophils. Also, as a result of examination using trypan blue dye exclusion method, 98% or more neutrophils were observed. […]
The neutrophils and monocytes isolated in Examples <2-1> and <2-2> above were cultured in a 96-well plate to which RPMI1640 medium containing 10% FBS was added, at a concentration of 1×10^5 cells/well/0.2 ml, respectively. […] Then, the level of IL-8 was measured using ELISA kit (Biosource, USA).
(In general: In an ELISA, binding on a coated surface is turned into a signal by an enzyme label.)

In test [1] the test system is myeloperoxidase (MPO) in pulmonary tissues. Nature of the test: LPS-induced (intratracheal) acute lung injury model, lung MPO activity. It is filed as in vivo, ICR mice. As to the method:
The activity of myeloperoxidase (MPO), an indicator of neutrophils, in pulmonary tissues was determined according to the methods of Goldblum et al (J. Appl. physiol. 59: 1978, 1985) and Parey et al (J. Immunol. 160:1007, 1998). First, mice were sacrificed and pulmonary tissues were obtained therefrom. The tissues had been homogenized in potassium phosphate buffer, and centrifuged to obtain pellets. These pellets were sonicated in potassium phosphate buffer containing 0.5% hexadecyltrimethylammonium bromide (HTAB), and incubated at 60° C. for 120 min. After centrifugation, supernatants were obtained. 0.02 ml of supernatants was mixed with potassium phosphate buffer solution (0.18 ml) containing o-dianisidine dihydrochloride of 0.167 mg/ml and 0.0005% hydrogen peroxide. Accordingly, the absorbance of the mixture was determined at a wavelength of 460 nm.
Mice were intratracheally administered with LPS to cause direct acute lung injury, thereby inducing acute respiratory distress syndrome.
ICR mice (25-30 g in body weight; MJ Ltd.) were divided into five groups of 7 mice (Sham group, experimental groups-1, -2, -3 and a control group). Mice of each group were anesthetized with pentobarbital, their skins were dissected in a length of 1 cm to expose their bronchia. […]

For the next test, the system named is E. coli. Nature of the test: In vitro antibacterial activity of LPC (CFU on LB media). In kind it is cell-based. Particulars: for CFU: 37° C., 12 hours. The procedure:
Four petridishes per group were used. For a control group, only LB media was poured onto four 60-mm petridishes and hardened. The peritoneal cavity of mice according to Example <6-1> was washed with sterilized saline. The resultant solution was diluted with HBSS in a ratio of 1/100, and then 10 μl of the diluted solution was spread on the media for each group. Subsequently, after they had been incubated in a bacteria incubator maintained at 37° C. for 12 hours, colony forming unit (CFU) was visibly measured.

A further test concerns neutrophils. Nature of the test: Inhibition of anti-apoptosis of neutrophils by inflammation mediators (AcOr/EtBr staining). In kind it is cell-based, human. Particulars: 15 μM and 30 μM. An excerpt: Neutrophils were isolated from healthy adults using discontinuous percoll gradient according to the method of Szucs, S. et al. (J. Immunol. Methods, 167: 245-251, 1994). First, plasmas were separated from heparinized whole blood, and red blood cells were depleted by dextran sedimentation. Thereafter, leukocytes were layered over a percoll gradient with densities of 1.077 and 1.094 (Pharmacia, Sweden). Separated neutrophil layers were recovered from the percoll gradient interface, and then washed with HBSS (Hank's balanced salt solution, Sigma Chemical Co., USA). The remaining pellet was resuspended in RPMI 1640 medium supplemented with 10% FBS (fetal bovine serum) and 2 mM gentamicin. As a result of the examination of the cytospin stained with Wright-Giemsa (Sigma Chemical Co., USA), it was observed that the resuspension solution contained 95% or more neutrophils. Also, as a result of examination using trypan blue dye exclusion method, 98% or more neutrophils were observed.
1×10^5 neutrophil cells isolated in above Example <1-1> were cultured in a 96-well plate to which RPMI1640 medium containing 10% FBS was added. Thereafter, they were treated with 1-stearoyl lysophosphatidylcoline (Sigma Chemical Co., USA) in concentrations of 15 μM and 30 μM, respectively. After 1 hour, they were treated with 1 μg/ml LPS (Sigma Chemical Co.). After 24 hours, the medium was removed from the plats, and the remaining cells were washed twice with PBS (phosphate-buffered saline) buffer at 4° C. The cells adhered to the bottom of the plate were all scraped and put into a 1.5-ml eppendorf tube. Then, they were centrifuged at 2500 rpm for 5 min, and the supernatant was removed. Again, 0.1 ml of PBS buffer at 4° C. was added to the pellet, which was then well mixed using pipetting. To 25 μl of the cell suspension was added 2 μl of AcOr/EtBr dye solution in which 100 μg/ml of acridine orange (AcOr) and 100 μg/ml of ethidium bromide (EtBr) were mixed. Then, the percentage of apoptotic cells/total cells was calculated with observing the neutrophil cells under a fluorescence microscope. […]

Each structure is given as a SMILES string.

`CCCCCCCCCCCCCCCCCC(=O)OCC(O)COP(=O)([O-])OCC[N+](C)(C)C` (stereo not drawn) [1-stearoyl LPC, 1-stearoyl (18:0) lysophosphatidylcholine]: in the test with neutrophils (human PMNs), the “level of IL-8 release that had been increased by LPS in neutrophils” value was “inhibited by LPC in a concentration-dependent manner”. In addition, the “activity of MPO in pulmonary tissues” value in test [1] (20 mg/kg subcutaneous (experimental group-3), p<0.01) is given as “the most excellent effects”; in test [1] (5, 10 and 20 mg/kg subcutaneous, 2 and 14 hours after intratracheal LPS, 24 hours after LPS, vs control group) it was “suppressed in a concentration-dependent manner”. The CFU in the test on E. coli (LPC conc. 12 μM in LB media) is reported as 661 ± 285; in the test with E. coli (LPC conc. 60 μM in LB media), 639 ± 304; in the test on E. coli (LPC conc. 300 μM in LB media), 611 ± 281. For the same compound, the “in vitro direct antibacterial effects against E. coli” value with E. coli (summary of Table 1) was “no in vitro direct antibacterial effects”. The “percentage of neutrophil apoptosis (apoptotic cells/total cells) that had been decreased by LPS” value in the test on neutrophils (1 hour before 1 μg/ml LPS, read after 24 hours) is listed as “increased by 1-stearoyl LPC in a concentration-dependent manner”. The “percentage of neutrophil apoptosis that had been decreased by endogenous inflammation mediators” value in the test with neutrophils (100 ng/ml GM-CSF, 100 ng/ml G-CSF or 100 ng/ml IFN-γ instead of LPS) was “increased by 1-stearoyl LPC in a concentration-dependent manner”.
